Measured values published in patent publication US20220306617A1, “SUBSTITUTED 1,3-PHENYL HETEROARYL DERIVATIVES AND THEIR USE IN THE TREATMENT OF DISEASE” (NOVARTIS AG, priority 2019, published 2022).
Structures can show the parent of a compound that is named as a salt.

Molecular target: T1, abc isoform of human TMEM16A channel expressed in CHO cells (Homo sapiens, UniProt Q5XXA6, DEL476-501)
T1 construct: expressed in transfected cells; host or cells: CHO cells, doxycycline-inducible expression under Blasticidin/Zeocin selection
T1 sequence (Q5XXA6 with tags, fused parts or gaps isoform Q5XXA6-5 DEL539-564): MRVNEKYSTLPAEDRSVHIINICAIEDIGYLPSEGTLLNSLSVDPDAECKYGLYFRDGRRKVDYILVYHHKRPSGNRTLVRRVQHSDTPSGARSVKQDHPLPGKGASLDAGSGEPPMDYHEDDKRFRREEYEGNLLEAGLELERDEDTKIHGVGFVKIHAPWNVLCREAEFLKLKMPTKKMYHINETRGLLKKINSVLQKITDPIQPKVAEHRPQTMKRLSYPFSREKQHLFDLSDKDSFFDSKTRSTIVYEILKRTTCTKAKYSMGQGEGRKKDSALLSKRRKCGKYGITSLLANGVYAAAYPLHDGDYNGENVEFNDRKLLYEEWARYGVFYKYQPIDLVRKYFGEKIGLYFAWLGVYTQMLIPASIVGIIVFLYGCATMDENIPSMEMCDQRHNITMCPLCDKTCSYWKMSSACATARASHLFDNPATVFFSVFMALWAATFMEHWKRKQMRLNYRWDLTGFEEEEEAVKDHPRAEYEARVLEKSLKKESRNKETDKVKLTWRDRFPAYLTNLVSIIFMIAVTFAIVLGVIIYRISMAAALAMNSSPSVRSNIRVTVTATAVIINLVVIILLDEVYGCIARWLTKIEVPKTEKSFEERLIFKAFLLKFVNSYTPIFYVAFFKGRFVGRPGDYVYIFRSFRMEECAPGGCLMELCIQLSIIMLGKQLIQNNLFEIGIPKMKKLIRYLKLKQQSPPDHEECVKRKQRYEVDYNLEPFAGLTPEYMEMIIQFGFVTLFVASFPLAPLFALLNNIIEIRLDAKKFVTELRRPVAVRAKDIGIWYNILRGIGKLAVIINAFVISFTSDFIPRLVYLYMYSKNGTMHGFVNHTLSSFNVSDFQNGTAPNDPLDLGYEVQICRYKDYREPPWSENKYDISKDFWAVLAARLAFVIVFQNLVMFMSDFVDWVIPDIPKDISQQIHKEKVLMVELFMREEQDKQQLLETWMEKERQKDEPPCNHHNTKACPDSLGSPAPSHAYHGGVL
Experiment: Automated patch clamping (QPatch) assay to measure TMEM16A activity in whole-cell
Type: cell-based
Details: for EC50: CHO cells expressing human TMEM16A (abc), whole-cell automated patch clamp, Hill fit, read-out: TMEM16A QPATCH assay EC50 V3 EC50; for Emax: CHO, read-out: TMEM16A QPATCH assay EC50 V3 Assay Window (% TMEM16A max activation)
Procedure, shortened: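 CHO cells with doxycycline-induced (1 μg/mL, 18-24 h) human TMEM16A abc isoform; QPatch whole-cell recording, hold −70 mV, step +70 mV 1500 ms, then −90 to +70 mV ramp. Compounds in 0.3% DMSO; EC50 by Hill fit; % max activation relative to vehicle baseline and reference potentiator maximum.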

[1] = maximum current at highest dose relative to reference potentiator at maximal concentration (upper limit) and vehicle (lower limit)

| SMILES | EC50 | Emax [1] | TMEM16A QPATCH assay EC50 V3 Assay Window (% TMEM16A max activation) [1] |
| --- | --- | --- | --- |
| C[C@H](NC(=O)c1cc(-c2cccc(-c3ncc(C(=O)N[C@H](C)C4CC4)o3)c2)nn1CCO)C1CC1 [Example 10.2, N-((R)-1-Cyclopropylethyl)-2-(3-(5-(((S)-1-Cyclopropylethyl)Carbamoyl)-1-(2-Hydroxyethyl)-1H-Pyrazol-3-Yl)Phenyl)Oxazole-5-Carboxamide] | 680 nM | 108% |  |
| O=C(NC(C1CC1)C1CC1)c1nnc(-c2cccc(-c3ncc(C(=O)NC(C4CC4)C4CC4)o3)c2)[nH]1 [Example 12.8, N-(Dicyclopropylmethyl)-2-(3-(5-((Dicyclopropylmethyl)Carbamoyl)-4H-1,2,4-Triazol-3-Yl)Phenyl)Oxazole-5-Carboxamide] | 20 nM | 119% |  |
| CCC(CC)NC(=O)c1cnc(-c2cccc(-c3cc(C(=O)N[C@@H](C#N)CC)n[nH]3)c2)o1 (single isomer, unassigned) [Example 3.26, (R)-2-(3-(3-((1-Cyanopropyl)Carbamoyl)-1H-Pyrazol-5-Yl)Phenyl)-N-(Pentan-3-Yl)Oxazole-5-Carboxamide or (S)-2-(3-(3-((1-Cyanopropyl)Carbamoyl)-1H-Pyrazol-5-Yl)Phenyl)-N-(Pentan-3-Yl)Oxazole-5-Carboxamide] | 240 nM |  | 109% |
| CCOC(=O)[C@@H](NC(=O)c1cnc(-c2cccc(-c3cc(C(=O)NC(CC)CC)n(CCO)n3)c2)o1)C(C)C [Example 4.1, (S)-Ethyl 2-(2-(3-(1-(2-Hydroxyethyl)-5-(Pentan-3-Ylcarbamoyl)-1H-Pyrazol-3-Yl)Phenyl)Oxazole-5-Carboxamido)-3-Methylbutanoate] | 27 nM | 81% |  |
| C[C@H](NC(=O)c1nnc(-c2cccc(-c3ncc(C(=O)N[C@@H](C)C4CC4)o3)c2)[nH]1)C1CC1 [Example 12.0, N-((S)-1-Cyclopropylethyl)-2-(3-(5-(((S)-1-Cyclopropylethyl)Carbamoyl)-4H-1,2,4-Triazol-3-Yl)Phenyl)Oxazole-5-Carboxamide] | 300 nM | 63% |  |
| CCC(CC)NC(=O)c1cnc(-c2cccc(-c3nc(C(=O)NC(CC)CC)n(CCN4Cc5ccccc5C4)n3)c2)o1 [Example 15.7, 2-(3-(1-(2-(Isoindolin-2-Yl)Ethyl)-5-(Pentan-3-Ylcarbamoyl)-1H-1,2,4-Triazol-3-Yl)Phenyl)-N-(Pentan-3-Yl)Oxazole-5-Carboxamide] | 320 nM | 103% |  |
| COC(=O)[C@@H](NC(=O)c1cnc(-c2cccc(-c3cc(C(=O)N[C@H](C)C4CC4)n[nH]3)c2)o1)C(C)C [Example 1.5, (S)-Methyl 2-(2-(3-(3-(((R)-1-Cyclopropylethyl)Carbamoyl)-1H-Pyrazol-5-Yl)Phenyl)Oxazole-5-Carboxamido)-3-Methylbutanoate] | 60 nM | 98% |  |
| CCOC(=O)[C@@H](NC(=O)c1cc(-c2cccc(-c3ncc(C(=O)NC(CC)CC)o3)c2)nn1CCN1CCOCC1)C(C)C [Example 7.0, (S)-Ethyl 3-Methyl-2-(1-(2-Morpholinoethyl)-3-(3-(5-(Pentan-3-Ylcarbamoyl)Oxazol-2-Yl)Phenyl)-1H-Pyrazole-5-Carboxamido)Butanoate] | 440 nM | 175% |  |
| COC(=O)[C@@H](NC(=O)c1cnc(-c2cccc(-c3cc(C(=O)NC(C4CC4)C4CC4)n(CC(C)(C)O)n3)c2)o1)C(C)C [Example 9.4, (S)-Methyl 2-(2-(3-(5-((Dicyclopropylmethyl)Carbamoyl)-1-(2-Hydroxy-2-Methylpropyl)-1 H-Pyrazol-3-Yl)Phenyl)Oxazole-5-Carboxamido)-3-Methylbutanoate] | 420 nM | 105% |  |

Now from value to molecule, other results behind:

| EC50 | Emax [1] | SMILES | TMEM16A QPATCH assay EC50 V3 Assay Window (% TMEM16A max activation) [1] |
| --- | --- | --- | --- |
| 940 nM | 77% | CCC(CC)NC(=O)c1cnc(-c2cccc(-c3cc(C(=O)N4CCC(C)(OC)CC4)n[nH]3)c2)o1 [Example 3.47, 2-(3-(3-(4-Methoxy-4-Methylpiperidine-1-Carbonyl)-1H-Pyrazol-5-yl)Phenyl)-N-(Pentan-3-Yl)Oxazole-5-Carboxamide] |  |
| 990 nM | 19% | CCC(CC)NC(=O)c1cc(-c2cccc(-c3ncc(C(=O)N[C@H](C)C(C)C)o3)c2)[nH]n1 [Example 1.46, (R)-N-(3-Methylbutan-2-Yl)-2-(3-(3-(Pentan-3-Ylcarbamoyl)-1 H-Pyrazol-5-yl)Phenyl)Oxazole-5-Carboxamide] |  |
| 880 nM | 66% | CCC(CC)NC(=O)c1cc(-c2cccc(-c3ncc(C(=O)N[C@@H](C(=O)OC)c4ccccc4)o3)c2)[nH]n1 [Example 1.39, (R)-Methyl 2-(2-(3-(3-(Pentan-3-Ylcarbamoyl)-1H-Pyrazol-5-yl)Phenyl)Oxazole-5-Carboxamido)-2-Phenylacetate] |  |
| 610 nM | 84% | CCOC(=O)[C@H](NC(=O)c1cnc(-c2cccc(-c3cc(C(=O)NC(CC)CC)n[nH]3)c2)o1)c1ccccc1 [Example 1.28, (R)-Ethyl 2-(2-(3-(3-(Pentan-3-Ylcarbamoyl)-1 H-Pyrazol-5-yl)Phenyl)Oxazole-5-Carboxamido)-2-Phenylacetate] |  |
| 110 nM | 55% | CCC(CC)NC(=O)c1cnc(-c2cccc(-c3cc(C(=O)NCC4CC4)n[nH]3)c2)o1 [Example 3.32, 2-(3-(3-((Cyclopropylmethyl)Carbamoyl)-1 H-Pyrazol-5-Yl)Phenyl)-N-(Pentan-3-Yl)Oxazole-5-Carboxamide] |  |
| 160 nM | 93% | CCC(CC)NC(=O)c1cc(-c2cccc(-c3ncc(C(=O)N[C@H](C)C4CC4)o3)c2)[nH]n1 [Example 1.40, (R)-N-(1-Cyclopropylethyl)-2-(3-(5-(Pentan-3-Ylcarbamoyl)-1H-Pyrazol-3-yl)Phenyl)Oxazole-5-Carboxamide] |  |
| 930 nM | 92% | CCC(CC)NC(=O)c1cc(-c2cccc(-c3ncc(C(=O)N[C@@H](C)c4ccccc4)o3)c2)[nH]n1 [Example 1.21, (S)-2-(3-(3-(Pentan-3-Ylcarbamoyl)-1H-Pyrazol-5-Yl)Phenyl)-N-(1-Phenylethyl)Oxazole-5-Carboxamide] |  |
| 260 nM | 83% | COC(=O)[C@@H](CSC)NC(=O)c1cnc(-c2cccc(-c3cc(C(=O)N[C@@H](C)C4CC4)n[nH]3)c2)o1 [Example 1.25, (S)-Methyl 2-(2-(3-(3-(((S)-1-Cyclopropylethyl)Carbamoyl)-1H-Pyrazol-5-yl)Phenyl)Oxazole-5-Carboxamido)-3-(Methylthio)Propanoate] |  |
| 170 nM | 122% | CCC(CC)NC(=O)c1cnc(-c2cccc(-c3cc(C(=O)NC4(C5CC5)CC4)n[nH]3)c2)o1 [Example 3.6, 2-(3-(3-([1,1′-Bi(Cyclopropan)]-1-Ylcarbamoyl)-1H-Pyrazol-5-Yl)Phenyl)-N-(Pentan-3-Yl)Oxazole-5-Carboxamide] |  |
| 330 nM | 106% | CCC(CC)NC(=O)c1cc(-c2cccc(-c3ncc(C(=O)N[C@@H](C)C4CC4)o3)c2)nn1CCO [Example 4.0, (S)-N-(1-Cyclopropylethyl)-2-(3-(1-(2-Hydroxyethyl)-5-(Pentan-3-Ylcarbamoyl)-1 H-Pyrazol-3-Yl)Phenyl)Oxazole-5-Carboxamide] |  |
| 30 nM | 119% | CCOC(=O)[C@@H](NC(=O)c1cnc(-c2cccc(-c3cc(C(=O)NC(CC)C(F)(F)F)[nH]n3)c2)o1)C(C)C (stereo partly drawn) [Example 1.22, (2S)-Ethyl 3-Methyl-2-(2-(3-(5-((1,1,1-Trifluorobutan-2-Yl)Carbamoyl)-1H-Pyrazol-3-Yl)Phenyl)Oxazole-5-Carboxamido)Butanoate] |  |
| 270 nM | 69% | CCC(CC)NC(=O)c1cnc(-c2cccc(-c3cc(C(=O)NCc4ccc(C5(C(F)(F)F)N=N5)cc4)n[nH]3)c2)o1 [Example 3.19, N-(Pentan-3-Yl)-2-(3-(3-((4-(3-(Trifluoromethyl)-3H-Diazirin-3-Yl)Benzyl)Carbamoyl)-1 H-Pyrazol-5-Yl)Phenyl)Oxazole-5-Carboxamide] |  |
| 790 nM | 68% | CCC(CC)NC(=O)c1cnc(-c2cccc(-c3cc(C(=O)NCC4(N5CCOCC5)CCCCC4)n[nH]3)c2)o1 [Example 3.67, 2-(3-(3-(((1-Morpholinocyclohexyl)Methyl)Carbamoyl)-1H-Pyrazol-5-Yl)Phenyl)-N-(Pentan-3-Yl)Oxazole-5-Carboxamide Trifluoroacetate] |  |
